Earlier results on one molecule are cited in patent US20170014380A1, “Vildagliptin Formulation Process Under Inert Gas Atmosphere” (Sanovell IIac Sanayi Ve Ticaret Anonim Sirketi, priority 2014, published 2017).

Take `N#C[C@@H]1CCCN1C(=O)CN[C@@]12C[C@@H]3C[C@@H](CC(O)(C3)C1)C2` [Vildagliptin, (S)-{[(3-hydroxyadamantan-1-yl)amino]acetyl}pyrrolidine-2-carbonitril]: the “solubility in organic polar solvents” value (in organic polar solvents) is “soluble”. The solubility in water result (in water) is “soluble”.
